Source: publication PMC11699130, “Design and synthesis of antiproliferative 2-oxoindolin-3-ylidenes incorporating urea function with potential VEGFR-2 inhibitory properties” (Scientific Reports, 2025)

How the values were obtained:
Format in all cases: cell-based
[1] = system: RPE1 (human immortalized retinal pigment epithelial) cell line; assay: MTT assay on normal cells for safety/selectivity; details: RPE-1, read-out: IC50, μM ± SD, RPE1
Description: (§1) Antiproliferation properties against normal RPE1 (human immortalized retinal pigment epithelial) cell line were also considered for safety/selectivity index (SI) determination of each respective agent synthesized (Table 1, Supplementary Figs. S61–S64). […]
(§2) was aspirated, fresh complete medium was added and cells were incubated with different concentrations of the tested compound to give a final concentration of [50, 25, 12.5 and 6.25 μM “in addition to 3.125, 1.56 and 0.78 μM in case of high potent a nalogs”). 0.5% DMSO was used as a negative control. Triplicate wells were prepared for each individual dose. After 72 h of incubation, medium was aspirated, 40 μl MTT salt (2.5 mg ml -1) was added to each well and incubated for further 4 h at 37 °C. To stop the reaction and dissolve the formed crystals, 150 μl of 10% sodium dodecyl sulfate (SDS) in deionized water was added to each well and incubated overnight at 37 °C. The absorbance was then measured at 570 nm and a reference wavelength of 595 nm.
(§3) Data were collected as mean values for experiments performed in triplicates for each individual dose which had been measured by MTT assay. Control experiments did […]
(§4) The cell surviving fraction was calculated according to the following equation.
(§5) Surviving fraction = Opticaldensity(O.D.)oftreatedcells
(§6) The agents synthesized were also tested against RPE1 (normal human immortalized retinal pigment epithelial cell line) cell (in DMEM -F12 medium) to determine the toxicity/selectivity towards normal cells relative to the cancer cell lines […]
(§7) The IC50 (concentration required to produce 50% inhibition of cell growth compared to the control experiment) was determined using Graph-Pad PRISM version-5 software. Statistical calculations for determination of the mean and standard division (SD) values were determined by SPSS 16 so ftware. The observed anti-proliferative properties are presented in Table 1 ( Supplementary Figs. S61‒S64). […]

[2] = system: HCT116 (colon) carcinoma cell line; assay: MTT antiproliferation assay, HCT116; details: for IC50: Homo sapiens, HCT-116, MTT, 72 h incubation, HCT116 (colon), read-out: IC50, μM ± SD, HCT116; for SI (safety/selectivity index), HCT116: in brackets after IC50, normal RPE1 relative to HCT116
Text: as §1
(§8) All the biological studies conducted obey the standards and approved by the Research Ethics Committee, National Research Centre, Egypt (associated with project ID:
(§9) Antiproliferation properties
(§10) The synthesized compounds 12a‒j were screened for their antiproliferation properties against HCT116 (colon), MCF7 (breast) and PaCa2 (pancreatic) cancer cell lines by the standard mitochondrial dependent reduction of yellow MTT [3 -(4,5-dimethylthiazol-2- […]
(§11) considered as standard reference/drug. Cells were suspended in DMEM medium for MCF7, PaCa-2 and McCoy’s 5A for HCT116 in addition to 1% antibiotic–antimycotic mixture (10000 μg ml-1 potassium penicillin, 10000 μg ml-1 streptomycin sulfate and 25 μg ml-1 amphotericin B), 10% fetal bovine serum and 1% L-glutamine at 37 °C, under 5% CO2 and 95% humidity. Cells were seeded at concentration of 30000 cells per well in fresh complete growth medium in 96-well tissue culture microtiter plates for 24 h. Media […]
as §2, §3, §4, §5, §6, §7

[3] = target: T1, VEGFR-2 (Homo sapiens, UniProt P35968); assay: VEGFR-2 inhibitory properties by western blotting; details: for Relative quantification (RQ): VEGFR-2 western blot band, normalised to beta actin, at 10 μM, control RQ 3.290; for inhibition at 10 µM: western blotting, read-out: % Inhibition against VEGFR-2
T1 construct: lysed cells; endogenous in cells
T1 sequence (P35968 20-1356): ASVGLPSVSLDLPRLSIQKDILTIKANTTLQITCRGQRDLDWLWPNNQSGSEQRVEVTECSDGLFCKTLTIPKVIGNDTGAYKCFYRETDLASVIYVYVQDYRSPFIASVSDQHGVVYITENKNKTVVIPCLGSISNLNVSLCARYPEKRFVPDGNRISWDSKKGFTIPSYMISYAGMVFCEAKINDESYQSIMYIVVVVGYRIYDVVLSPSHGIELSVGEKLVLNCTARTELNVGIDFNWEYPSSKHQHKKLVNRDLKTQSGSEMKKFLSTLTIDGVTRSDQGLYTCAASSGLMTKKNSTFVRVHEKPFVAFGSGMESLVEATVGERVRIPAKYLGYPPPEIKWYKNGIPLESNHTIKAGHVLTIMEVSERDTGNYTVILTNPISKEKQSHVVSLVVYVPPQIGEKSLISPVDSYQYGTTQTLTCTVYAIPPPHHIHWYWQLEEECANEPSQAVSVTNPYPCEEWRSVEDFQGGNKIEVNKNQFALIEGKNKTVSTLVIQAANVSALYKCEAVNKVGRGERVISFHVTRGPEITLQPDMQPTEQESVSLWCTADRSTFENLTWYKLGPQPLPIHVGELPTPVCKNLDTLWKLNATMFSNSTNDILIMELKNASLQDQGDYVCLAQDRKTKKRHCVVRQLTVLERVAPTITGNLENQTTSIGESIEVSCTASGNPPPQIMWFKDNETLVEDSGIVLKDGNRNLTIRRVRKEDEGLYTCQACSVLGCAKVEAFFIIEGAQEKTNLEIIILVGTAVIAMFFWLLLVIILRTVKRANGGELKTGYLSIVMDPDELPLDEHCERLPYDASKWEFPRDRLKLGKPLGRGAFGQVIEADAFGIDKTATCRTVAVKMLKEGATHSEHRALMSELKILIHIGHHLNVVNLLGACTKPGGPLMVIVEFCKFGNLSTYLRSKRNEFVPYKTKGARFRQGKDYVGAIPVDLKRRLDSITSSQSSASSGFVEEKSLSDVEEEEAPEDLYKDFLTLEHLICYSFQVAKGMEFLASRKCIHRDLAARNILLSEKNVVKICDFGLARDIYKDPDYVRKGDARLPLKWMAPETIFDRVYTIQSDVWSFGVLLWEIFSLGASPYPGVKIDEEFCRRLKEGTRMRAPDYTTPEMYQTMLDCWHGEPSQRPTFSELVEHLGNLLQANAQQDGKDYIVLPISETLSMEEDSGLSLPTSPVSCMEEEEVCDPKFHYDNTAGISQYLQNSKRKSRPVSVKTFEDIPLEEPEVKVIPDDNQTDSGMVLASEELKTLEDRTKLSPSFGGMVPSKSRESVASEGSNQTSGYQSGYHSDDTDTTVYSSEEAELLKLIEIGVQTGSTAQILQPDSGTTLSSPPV
Description: VEGFR-2 inhibitory properties […]
standard/drug) was determined at 10 μM by the western blotting technique obeying the manufacturer’s instruction (Santa Cruz Biotechnology, Inc .).5
Protein extraction procedure
The ReadyPrepTM protein extraction kit (total protein) provided by Bio-Rad Inc.
(Catalog #163-2086) employed by the manufacturer, was added to each sample of the lysed cells. Bradford Protein Assay Kit (SK3041) for quantitative protein analysis was provided by Bio-basic Inc. (Markham Ontario L3R 8T4 Canada). A Bradford assay was performed according to manufacturer’s instructions to determine protein concentration in each sample. 20 μg protein concentration of each sample was then loaded with an equal volume of 2x Laemmli sample buffer containing 4% SDS, 10% 2-mercaptoehtanol, 20% glycerol, 0.004% bromophenol blue and 0.125 M Tris HCl. The pH was checked and brought to 6.8. Each previous mixture was boiled at 95°C for 5 min to ensure denaturation of protein before loading on polyacrylamide gel electrophoresis.
Protein separation by electrophoresis
Samples were separated on a polyacrylamide gel; the procedure was abbreviated as SDS-PAGE form Sodium Dodecyl Sulfate PolyAcrylamide Gel Electrophoresis, which is a standard technique for separating proteins according to their molecular weight.
Polyacrylamide gels were performed using TGX Stain-Free™ FastCast™ Acrylamide Kit (SDS-PAGE), which was provided by Bio-Rad Laboratories inc Cat # 161-0181. The SDS-PAGE TGX Stain-Free FastCast was prepared according to manufacturer’s […]
Protein blotting (transfer of proteins from the gel to the membrane)
The gel was assembled in transfer sandwich from below to above (filter paper, PVDF membrane, gel and filter paper). The sandwich was placed in the transfer tank with 1x transfer buffer, which is composed of 25 mM Tris and 190 mM glycine and 20% methanol. Then, the blot was run for 7 min . at 25 V to allow protein bands transfer from gel to membrane using BioRad Trans-Blot Turbo.
The membrane was blocked in tris -buffered saline with Tween 20 (TBST) buffer and 3% bovine serum albumin (BSA) at room temperature for 1 hr. The components of blocking […]
buffer were as follow; 20 mM Tris pH 7.5, 150 mM NaCl, 0.1% Tween 20 and 3% bovine serum albumin (BSA).
Incubation with the primary antibody
Primary antibody of VEGFR2 was purchased. Primary antibody was diluted in TBST according to manufactured instructions.

[4] = system: PaCa2 (pancreatic) carcinoma cell line; assay: MTT antiproliferation assay, PaCa2; details: for IC50: PaCa-2, MTT, 72 h incubation, PaCa2 (pancreatic), read-out: IC50, μM ± SD, PaCa2; for SI (safety/selectivity index), PaCa2: in brackets after IC50, normal RPE1 relative to PaCa2
Text: as §1, §8, §9, §10, §11, §2, §3, §4, §5, §6, §7

[5] = system: MCF7 (breast) carcinoma cell line; assay: MTT antiproliferation assay, MCF7; details: for IC50: Homo sapiens, MTT, 72 h incubation, MCF7 (breast), read-out: IC50, μM ± SD, MCF7; for SI (safety/selectivity index), MCF7: in brackets after IC50, normal RPE1 relative to MCF7
Text: as §1, §8, §9, §10, §11, §2, §3, §4, §5, §6, §7

## O=C(Nc1ccccc1)Nc1ccc(C(=O)/C=C2/C(=O)Nc3ccccc32)cc1 [Compound 12b, (E)-1-{4-[2-(2-Oxoindolin-3-ylidene)acetyl]phenyl}-3-phenylurea]
[1]
  IC50: 8.36 ± 0.374 µM
[2]
  IC50: 6.54 ± 0.452 µM
  SI (safety/selectivity index), HCT116: 1.277
[3]
  Relative quantification (RQ): 0.422
  inhibition at 10 µM: 87.2%
[4]
  IC50: 4.09 ± 0.172 µM
  SI (safety/selectivity index), PaCa2: 2.043
[5]
  IC50: 2.08 ± 0.126 µM
  SI (safety/selectivity index), MCF7: 4.014

## COc1ccc2c(c1)/C(=C\C(=O)c1ccc(NC(=O)Nc3ccccc3)cc1)C(=O)N2 [Compound 12j, (E)-1-{4-[2-(5-Methoxy-2-oxoindolin-3-ylidene)acetyl]phenyl}-3-phenylurea]
[1]
  IC50: 8.6 ± 0.334 µM
[2]
  IC50: 6.15 ± 0.539 µM
  SI (safety/selectivity index), HCT116: 1.400
[3]
  Relative quantification (RQ): 0.678
  inhibition at 10 µM: 79.4%
[4]
  IC50: 4.49 ± 0.785 µM
  SI (safety/selectivity index), PaCa2: 1.917
[5]
  IC50: 1.69 ± 0.067 µM
  SI (safety/selectivity index), MCF7: 5.090

## O=C(Nc1ccccc1)Nc1ccc(C(=O)/C=C2/C(=O)Nc3ccc(F)cc32)cc1 [Compound 12d, (E)-1-{4-[2-(5-Fluoro-2-oxoindolin-3-ylidene)acetyl]phenyl}-3-phenylurea]
[1]
  IC50: 11 ± 0.429 µM
[2]
  IC50: 5.78 ± 0.593 µM
  SI (safety/selectivity index), HCT116: 1.898
[3]
  Relative quantification (RQ): 0.491
  inhibition at 10 µM: 85.1%
[4]
  IC50: 4.96 ± 0.201 µM
  SI (safety/selectivity index), PaCa2: 2.214
[5]
  IC50: 2.9 ± 0.3 µM
  SI (safety/selectivity index), MCF7: 3.779

## COc1ccc2c(c1)/C(=C\C(=O)c1cccc(NC(=O)Nc3ccccc3)c1)C(=O)N2 [Compound 12i, (E)-1-{3-[2-(5-Methoxy-2-oxoindolin-3-ylidene)acetyl]phenyl}-3-phenylurea]
[1]
  IC50: 30.2 ± 0.948 µM
[2]
  IC50: 27.2 ± 2.95 µM
  SI (safety/selectivity index), HCT116: 1.111
[3]
  Relative quantification (RQ): 0.634
  inhibition at 10 µM: 80.7%
[4]
  IC50: 7.64 ± 0.08 µM
  SI (safety/selectivity index), PaCa2: 3.952
[5]
  IC50: 8.96 ± 0.767 µM
  SI (safety/selectivity index), MCF7: 3.370

## O=C(Nc1ccccc1)Nc1cccc(C(=O)/C=C2/C(=O)Nc3ccc(F)cc32)c1 [Compound 12c, (E)-1-{3-[2-(5-Fluoro-2-oxoindolin-3-ylidene)acetyl]phenyl}-3-phenylurea]
[1]
  IC50: 21.31 ± 0.026 µM
[2]
  IC50: 14.4 ± 1.47 µM
  SI (safety/selectivity index), HCT116: 1.483
[3]
  Relative quantification (RQ): 0.472
  inhibition at 10 µM: 85.6%
[4]
  IC50: 6.8 ± 0.514 µM
  SI (safety/selectivity index), PaCa2: 3.133
[5]
  IC50: 5.81 ± 0.629 µM
  SI (safety/selectivity index), MCF7: 3.669

## Cc1ccc2c(c1)/C(=C\C(=O)c1ccc(NC(=O)Nc3ccccc3)cc1)C(=O)N2 [Compound 12h, (E)-1-{4-[2-(5-Methyl-2-oxoindolin-3-ylidene)acetyl]phenyl}-3-phenylurea]
[1]
  IC50: 8.5 ± 0.466 µM
[2]
  IC50: 5.58 ± 0.636 µM
  SI (safety/selectivity index), HCT116: 1.523
[3]
  Relative quantification (RQ): 0.475
  inhibition at 10 µM: 85.6%
[4]; PaCa2, ratio of IC50 values
  fold more potent than sunitinib: about 3.34 fold
[4]
  IC50: 4 ± 0.369 µM
  SI (safety/selectivity index), PaCa2: 2.128
[5]
  IC50: 2.07 ± 0.081 µM
  SI (safety/selectivity index), MCF7: 4.107

## O=C(Nc1ccccc1)Nc1ccc(C(=O)/C=C2/C(=O)Nc3ccc(Cl)cc32)cc1 [Compound 12f, (E)-1-{4-[2-(5-Chloro-2-oxoindolin-3-ylidene)acetyl]phenyl}-3-phenylurea]
[1]
  IC50: 10.7 ± 0.766 µM
[2]
  IC50: 6.58 ± 0.923 µM
  SI (safety/selectivity index), HCT116: 1.630
[3]
  Relative quantification (RQ): 0.517
  inhibition at 10 µM: 84.3%
[4]
  IC50: 5.81 ± 0.63 µM
  SI (safety/selectivity index), PaCa2: 1.845
[5]
  IC50: 3.41 ± 0.761 µM
  SI (safety/selectivity index), MCF7: 3.144

## O=C(Nc1ccccc1)Nc1cccc(C(=O)/C=C2/C(=O)Nc3ccccc32)c1 [Compound 12a, (E)-1-{3-[2-(2-Oxoindolin-3-ylidene)acetyl]phenyl}-3-phenylurea]
[1]
  IC50: 13.6 ± 0.659 µM
[2]
  IC50: 13.3 ± 1.35 µM
  SI (safety/selectivity index), HCT116: 1.022
[3]
  Relative quantification (RQ): 0.746
  inhibition at 10 µM: 77.3%
[4]
  IC50: 5.24 ± 0.502 µM
  SI (safety/selectivity index), PaCa2: 2.606
[5]
  IC50: 3.13 ± 0.395 µM
  SI (safety/selectivity index), MCF7: 4.355

## CCN(CC)CCNC(=O)c1c(C)[nH]c(/C=C2\C(=O)Nc3ccc(F)cc32)c1C [Sunitinib, reference compound]
[2]
  IC50: 9.57 ± 0.949 µM
[4]
  IC50: 13.34 ± 0.091 µM
[5]
  IC50: 11.8 ± 0.937 µM

## O=C(Nc1ccccc1)Nc1ccc(C(=O)/C=C2/C(=O)Nc3ccc(Br)cc32)cc1 [Compound 12g, (E)-1-{4-[2-(5-Bromo-2-oxoindolin-3-ylidene)acetyl]phenyl}-3-phenylurea]
[1]
  IC50: 13.7 ± 0.85 µM
[2]
  IC50: 6.29 ± 0.912 µM
  SI (safety/selectivity index), HCT116: 2.173
[3]
  Relative quantification (RQ): 0.500
  inhibition at 10 µM: 84.8%
[4]
  IC50: 5.32 ± 0.228 µM
  SI (safety/selectivity index), PaCa2: 2.572
[5]
  IC50: 4.41 ± 0.544 µM
  SI (safety/selectivity index), MCF7: 3.101
